Assay results as given in patent US10351570B2, “Compounds and uses thereof” (Kala Pharmaceuticals, Inc., priority 2013, dated 2019).
Like-named read-outs stand apart in the source and are kept apart here.

Columns and labels:
[1] = Milling with Pluronic F127 into mucus penetrating particles; particle size by dynamic light scattering; type: physicochemical; settings: formulated as MPP, milled with Pluronic F127 in DPBS; for Particle Size: dynamic light scattering
Description: Compounds of the present invention synthesized in accordance with the preceding Examples were formulated as mucus penetrating particles (MPP). Specifically, compounds I-2, compound I-5, and compound I-6 were each milled in the presence of Pluronic F127 (F127) to determine whether F127 1) aids particle size reduction to several hundreds of nanometers and 2) physically (non-covalently) coats the surface of generated nanoparticles with a mucoinert coating that would minimize particle interactions with mucus constituents and prevent mucus adhesion.
A milling procedure was employed in which an aqueous dispersion containing coarse drug particles and Pluronic F127 (F127) was milled with grinding medium until particle size was reduced below 400 nm as measured by dynamic light scattering. Table 4 lists the size of particles and polydispersity index (a measure of the width of the particle size distribution) generated using this technique. In this example suspensions were buffered using DPBS (Dulbecco's Phosphate-Buffered Saline) which yields a suspension that is both isotonic and has a physiologically relevant pH.

[2] = Nanoparticle mobility in human cervicovaginal mucus (dark field microscopy); settings: low pH of CVM
Method: In order to determine whether the generated nanoparticles have reduced interactions with mucins and are therefore able to move within mucus without becoming trapped, particles were incubated with human cervicovaginal mucus (CVM) and observed via dark field microscopy. In a typical experiment, 51 μL of the nanoparticle suspension was added to 20 μl of CVM. Observations were made in a minimum of three distinct and randomly selected areas of the CVM sample. Control particles with known behavior were used to qualify the CVM sample as appropriate for the assay.

[3] = Physical and chemical stability of I-2 solutions at room temperature; type: physicochemical; settings: F127 (0.5%), 20 mM Tris (pH 8); precipitation
Method: Solutions of I-2 were formulated with F127 or Tween 80, and under a range of pH values. Briefly, I-2 was first completely solubilized using an acidic solution (0.1 N HCl) at a high concentration of […]. The final formulation was diluted to a solution consisting of 0.5% (w/v) I-2 into buffered solution containing F127 or Tween 80 as described in Table 5. Following dilution, the pH of the formulations was measured using pH indicator strips (PEHANON) and confirmed to be within expected range (±0.5 units of target pH).
Physical and chemical stability of the solutions at room temperature (20-25° C.) were assessed after 7-10 days (tfinal). Physical instability in a solution can manifest as the precipitation and sedimentation of the drug of interest and excipients over time. To assess physical stability, the formulations at tfinal were first filtered through a 300 kDa modified polyethersulfone filter membrane (Nanosep) to remove any precipitate in the solution. The concentration of I-2 in the filtrates was then measured and compared to that at t=0. The purity of I-2 in the unfiltered solution was also evaluated at tfinal, to further confirm chemical stability. This parameter is defined by the area under the signal peak that is attributed to compound I-2 as a percentage of all peaks reported by in the sample by HPLC (% peak area).

[4] = PK study after topical ocular administration of compound I-2 solution; type: in vivo, Dutch-belted rabbits; settings: Dutch-belted, rabbit, topical or ocular, 50 μL of 0.5% solution, topical 0.5% solution, 50 μL BID 5 days; for AUC(0-t): read-out: AUC0-12 hr
Method: (§1) In this example, the formulation consisted of 0.5% I-2, 0.5% F127, in 20 mM citrate buffer pH 6.0 and NaCl (added to produce isotonic formulation).
(§2) The portion of the retina and choroid collected and analyzed was an 8-mm round punch where the macula is located in humans.

[5] = Draize-Ocular Irritation assessment; type: in vivo, Dutch-belted rabbits; settings: topical 0.5% solution, 50 μL BID 5 days
Method: as §1, §2

Polydispersity Index (PDI) [1]	Particle Size [1]	solubility in CVM [2]	physical stability of solution [3]	Cmax ([4]; Choroid (8-mm punch))	Tmax ([4]; Choroid (8-mm punch))	AUC(0-t) ([4]; Choroid (8-mm punch))	Cmax ([4]; Plasma)	Tmax ([4]; Plasma)	AUC(0-t) ([4]; Plasma)	half-life ([4]; Plasma, read-out: t½ (converted))	Cmax ([4]; Retina (8-mm punch))	Tmax ([4]; Retina (8-mm punch))	AUC(0-t) ([4]; Retina (8-mm punch))	SMILES	Draize-Ocular Irritation [5]
0.206	245 nm	–	–	–	–	–	–	–	–	–	–	–	–	Cc1ccc(Oc2ccc3nc(NC(=O)CC4COC4)cn3n2)cc1NC(=O)c1cccc(F)c1 [Compound I-6]	–
–	–	soluble	major physical instability	1790 nM	2 h	12.5 µM·h	5.96 nM	0.5 h	0.0256 µM·h	3.63 h	218 nM	0.5 h	2.06 µM·h	Cc1cc(C(=O)Nc2cc(Oc3ccc4nc(NC(=O)CN5CC[C@H](N(C)C)C5)cn4n3)ccc2C)n(C)n1 [Compound I-2]	no irritation
0.160	276 nm	–	–	–	–	–	–	–	–	–	–	–	–	Cc1cc(C(=O)Nc2cc(Oc3ccc4nc(NC(=O)NC5COC5)cn4n3)ccc2C)n(C)n1 [Compound I-5]	–
